US6566373B2, “Protease inhibitors” (SmithKline Beecham Corporation, priority 1997, dated 2003)
Structures can show the parent of a compound that is named as a salt.

Assays:
cathepsin K = target: T1, cathepsin K (Homo sapiens, UniProt P43235); experiment: Cathepsin K inhibition (progress curve method, fluorogenic substrate Cbz-Phe-Arg-AMC); assay type: biochemical; settings: human recombinant enzyme, 100 mM Na acetate pH 5.5
T1 sequence (P43235 115-329): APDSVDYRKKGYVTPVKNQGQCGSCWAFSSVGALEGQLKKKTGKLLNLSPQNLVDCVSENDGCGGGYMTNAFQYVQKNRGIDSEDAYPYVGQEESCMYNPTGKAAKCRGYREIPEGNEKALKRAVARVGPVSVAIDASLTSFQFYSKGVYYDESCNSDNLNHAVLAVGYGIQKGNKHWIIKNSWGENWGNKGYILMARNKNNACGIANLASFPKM
Protocol: Determination of Cathepsin K Proteolytic Catalytic Activity
All assays for cathepsin K were carried out with human recombinant enzyme. Standard assay conditions for the determination of kinetic constants used a fluorogenic peptide substrate, typically Cbz-Phe-Arg-AMC, and were determined in 100 mM Na acetate at pH 5.5 containing 20 mM cysteine and 5 mM EDTA. Stock substrate solutions were prepared at concentrations of 10 or 20 mM in DMSO with 20 μM final substrate concentration in the assays. All assays contained 10% DMSO. […] All assays were conducted at ambient temperature. Product fluorescence (excitation at 360 nm; emission at 460 nm) was monitored with a Perceptive Biosystems Cytofluor II fluorescent plate reader. […]
Potential inhibitors were evaluated using the progress curve method. […] For those compounds whose progress curves were linear, apparent inhibition constants (Ki,app) were calculated according to equation 1 (Brandt et al., Biochemitsry, 1989, 28, 140): […]
[AMC]=vSSt+(v0−vSS)[1−exp (−kobst)]/kobs (2) where [AMC] is the concentration of product formed over time t, v0 is the initial reaction velocity, and vSS is the final steady state rate. Values for kobs were then analyzed as a linear function of inhibitor concentration to generate an apparent second order rate constant (kobs/inhibitor concentration or kobs/[I]) describing the time-dependent inhibition. […]

SMILES: CC(C)C[C@H](NS(=O)(=O)c1cccc2cccnc12)C(=O)NC1COCC1=O (mixture of isomers) (as salt: HCl) [Example 7, 4-(R,S)-Amino-N-[(8-quinolinesulfonyl)-S-leucine]-tetrahydrofuran-3-one]
- melting point: 98 °C

SMILES: CC(C)C[C@H](NS(=O)(=O)c1cccc2cccnc12)C(=O)NC1COCC1=O (mixture of isomers) [Example 7, 4-(R,S)-Amino-N-[(8-quinolinesulfonyl)-S-leucine]-tetrahydrofuran-3-one]
- Ki (cathepsin K): > 10 µM
